Patent publication US8334267B2, “Mangiferin calcium salts, the method for its preparation and its use” (Hainan Deze Drug Research Co., Ltd., priority 2007, dated 2012)
One block for each molecule: values may come before it.

How the values were obtained:
[1] = Stability of mangiferin calcium by preparation route; assay type: physicochemical; settings: mangiferin calcium made by reacting mangiferin with calcium hydroxide; changes much in 2 hours
Method: 3, The water solution of mangiferin calcium which mangiferin reacted with calcium hydroxide is unstable, it changes much in 2 hours. The reaction of mangiferin with other alkaline calcium like calcium bicarbonate or calcium acetate is difficult because they are alkalescent. The productivity is very low.
5, Mangiferin monosodium (or monopotassium) is come into being first; then mangiferin monosodium (or monopotassium) reacts with water-solubility calcium salt, and mangiferin calcium is come into being. The mangiferin calcium which is obtained by this method is stability, and the productivity is high.

[2] = Pharmacokinetics of mangiferin and mangiferin calcium after oral administration; assay type: in vivo, rats
Method: 1, The Confect of Drug Solution
Mangiferin is suspended in Carboxymethyl cellulose sodium solution which concentration is one percent; the mangiferin concentration is 10 mg/mL, which is sample A.
All rats were fasted for 16 hours, free drinking water. The rats are oral administrated separately sample A and sample B, which dose is 100 mg/kg. The rats were taken whole blood in 5 minutes before oral administrated and 15 min, 30 min, 45 min, 60 min, 90 min, 120 min, 180 min, 240 min, 300 min, 360 min, 480 min after oral administrated. Serum is separated from these blood samples.
Serum Samples are extracted accurately 0.2 ml into centrifuge tubes separately; then 40 μL cold trichloroacetic acid solution which concentration is ten percent is added into centrifuge tubes separately. The samples are whorled 3 minutes; then centrifuged 12000 r/min for 10 minutes, 120 μl the up layer solution are extracted from centrifuge tubes and put into sample bottles separately. All the samples are detected by HPLC.
Apparatus: Angilent 1100 HPLC (American Agilent Co.), include G1312A dual pump G1313A Auto-Sampler.
Chromatographic column: discover ODS column (250 mm×6 mm, 5 μm);
The mobile phase: Acetonitrile—0.1% H3PO4 water (13:87 v/v)
Velocity of flow: 1.0 ml/min
Detection Wavelength: 254 nm.
Column temperature: 30° C.

[3] = Water solubility test in distilled water
Method: 5 mg mangiferin powder which is weighed up accurately is put into 50 ml distilled water, the solution is shaked acutely 30 second every 5 minutes.
100 mg mangiferin calcium powder which is obtained by the method for preparation of example 8 and weighed up accurately is put into 50 ml distilled water, the solution is shaked acutely 30 second every 5 minutes.

[4] = test system: STZ rats; assay: Efficacy in STZ model (plasma glucose, insulin, lipids, glucose clamp); assay type: in vivo, wistar rats; settings: for Glucose infusion rate: glucose clamp; for FFA / GLU / INS / TG: high fat chow
Method: Rosiglitazone Hydrochloride tablets were purchased from Zhejiang wanma pharmaceutical Co., Ltd. Mangiferin and mangiferin calcium salts were suspended with 3% sodium carboxymethyl cellulose.
Normal female wistar rats (SPF, 3 months age, 180-200 g) were purchased from Hainan provincial peoples hospital experimental Animal Center. The animals were kept in a room temperature (25˜28° C.) with free access of food and water. A light-dark cycle (6 a.m and 6 p.m) was strictly enforced. High fat chow is composed of 55% basic chow, 2% protein, 16% fat, 27% white sugar.
Model: After the rats were fasted for 12 hours, the rats are injected 30-35 mg/kg streptozotocin (STZ) solution once by tail vein. STZ solution is prepared to 2% concentration with […], pH 4.4 citrate-sodium citrate buffer before use. The model rats were weighed, taked out tail vein blood, tested blood glucose when the Model is done after 14 days after fasting for 12 hours, then injected 20% glucose solution ([…]) by intraperitoneal, determined blood glucose in 0.5 h, 1 h, 2 h. The rats whose glucose tolerance is abnormal were brought into experiments. Normal wistar rats were fed normal chow, model rats were fed high fat chow.
Experimental group:normal wistar rats group (n=10); after Diabetes model is succeed, the rats were randomly divided into 7 groups: Diabetes model group (n=10); mangiferin groups (20, 40, 80 mg/kg, each 10 rats); mangiferin calcium groups (10, 20, 40 mg/kg, each 10 rats); Rosiglitazone Hydrochloride group [3 mg/kg, n=10]. Test samples or vehicle control was given orally for 8 weeks. Diabetes model group and normal group were given vehicle.
Determination of insulin sensitivity (Glucose infusion rate): Using glucose clamp technique, in accordance with Konglingdong'method ? KONG Ling-dong, ZHU Liang-zheng, SONG Ju-min, etc al. Intervention Effects of Tiaozhi Jiangtang Tablet on Insulin Resistance in Rats with Diabetes Mellitus Type 2.
Determination of plasma glucose and lipid: Rats were taken whole blood after killed, then serum was separated, determined plasma glucose (GLU), insulin (INS), triglycerides (TG) and free fatty acids (FFA).
GLU and TG levels were determined using GF-D800 semi-auto chemist which was purchased from Shandong Gaomi Caihong Analytical Instrument Co., Ltd. Free fatty acids were determined using copper colorimetric determination. The kits for Determination of free fatty acids were purchased from Nanjing Jiancheng Bioengineering Institute. Insulin: radioimmunoassay (RIA), γ counter counts. insulin RIA Kit was purchased from Shandong Weifang City three-dimensional (3V) Biological company.
Statistics: The results have been calculated as mean±SD ( x±SD) and compareisons of the data have been done by t-test.

[5] = test system: GK rats; assay: Efficacy in GK model (plasma glucose, insulin, lipids); assay type: in vivo, Goto-Kakizaki rats (GK)
Method: Rosiglitazone Hydrochloride tablets were purchased from Zhejiang wanma pharmaceutical Co., Ltd. Mangiferin and mangiferin calcium were suspended with 3% sodium carboxymethyl cellulose before use.
Goto-Kakizaki rats (GK) (16 weeks age, ♀ ♂) were purchased from Shanghai SLAC laboratory animal Co., Ltd. The animals were kept in IVC cages with temperature (22° C.). There are two rats in each cage.
Experimental group: GK rats group (n=10); mangiferin groups (20, 40, 80 mg/kg, each 10 rats); mangiferin calcium groups (10, 20, 40 mg/kg, each 10 rats); Rosiglitazone Hydrochloride group [3 mg/kg, n=10]. Test samples or vehicle control was given orally for 30 days. GK rats group were given vehicle.
The blood specimens were taken by abdominal aorta at the end of the test. Plasma glucose (GLU), insulin (INS), triglycerides (TG), total cholesterol (TC), high density lipoprotein (HDL), low density lipoprotein (LDL) were determined
GLU, TC, TG, HDL and LDL levels were determined using GF-D800 semi-auto chemist which was purchased from Shandong Gaomi Caihong Analytical Instrument Co., Ltd. Insulin: radioimmunoassay (RIA), γ counter counts. insulin RIA Kit was purchased from Shandong Weifang City three-dimensional (3V) Biological company.
Statistics: The results have been calculated as mean±SD ( x±SD) and comparisons of the data have been done by t-test.

SMILES: O=c1c2cc(O)c(O)cc2oc2cc([O-])c([C@@H]3O[C@H](CO)[C@@H](O)[C@H](O)[C@H]3O)c(O)c12.O=c1c2cc([O-])c(O)cc2oc2cc(O)c([C@@H]3O[C@H](CO)[C@@H](O)[C@H](O)[C@H]3O)c(O)c12.[Ca+2] [Mangiferin calcium, mangiferin calcium]
stability of water solution [1]: unstable
bioavailability ([2]; rats, oral 100 mg/kg, compared with mangiferin): better than mangiferin
Cmax ([2]; rats, oral 100 mg/kg, serum): 48300 ± 600 ng/mL
T1/2β ([2]; rats, oral 100 mg/kg, serum): 61.4 ± 7.7 min
dissolves in 30 minutes ([3]; 50 mg powder in 50 ml distilled water, prepared per example 8): can dissolve
dissolves in 30 minutes ([3]; 100 mg powder in 50 ml distilled water, prepared per example 8): can not dissolve completely
water solubility ([3]; distilled water, shaken 30 second every 5 minutes, 30 minutes): more than 1 mg/ml
improvement of GLU, TG, FFA, INS, Glucose infusion rate in diabetic rats ([4]; 10 mg/kg orally for 8 weeks): significantly improves
Glucose infusion rate ([4]; 10 mg/kg orally for 8 weeks): 17.56 ± 3.45 mg/kg · min
Glucose infusion rate ([4]; 20 mg/kg orally for 8 weeks): 24.37 ± 3.75 mg/kg · min
Glucose infusion rate ([4]; 40 mg/kg orally for 8 weeks): 26.36 ± 3.58 mg/kg · min
FFA ([4]; 10 mg/kg orally for 8 weeks): 1.54 ± 0.23 µmol/L
GLU ([4]; 10 mg/kg orally for 8 weeks): 8.01 ± 0.32 mmol/L
INS ([4]; 10 mg/kg orally for 8 weeks): 27.63 ± 3.46 μ IU/ml
TG ([4]; 10 mg/kg orally for 8 weeks): 2.49 ± 0.18 mmol/L
FFA ([4]; 20 mg/kg orally for 8 weeks): 1.28 ± 0.14 µmol/L
GLU ([4]; 20 mg/kg orally for 8 weeks): 7.31 ± 0.22 mmol/L
INS ([4]; 20 mg/kg orally for 8 weeks): 23.57 ± 3.68 μ IU/ml
TG ([4]; 20 mg/kg orally for 8 weeks): 1.93 ± 0.36 mmol/L
FFA ([4]; 40 mg/kg orally for 8 weeks): 1.13 ± 0.18 µmol/L
GLU ([4]; 40 mg/kg orally for 8 weeks): 6.91 ± 2.02 mmol/L
INS ([4]; 40 mg/kg orally for 8 weeks): 20.53 ± 4.42 μ IU/ml
TG ([4]; 40 mg/kg orally for 8 weeks): 1.49 ± 0.28 mmol/L
GLU ([5]; 10 mg/kg orally for 30 days): 24.06 ± 1.57 mmol/L
HDL ([5]; 10 mg/kg orally for 30 days): 0.81 ± 0.07 mmol/L
INS ([5]; 10 mg/kg orally for 30 days): 27.48 ± 8.70 μ IU/ml
LDL ([5]; 10 mg/kg orally for 30 days): 1.26 ± 0.18 mmol/L
TC ([5]; 10 mg/kg orally for 30 days): 2.43 ± 0.21 mmol/L
TG ([5]; 10 mg/kg orally for 30 days): 1.79 ± 0.22 mmol/L
improvement of TC, HDL and LDL in diabetic GK rats ([5]; 10 mg/kg orally for 30 days): significantly improves
GLU ([5]; 20 mg/kg orally for 30 days): 23.34 ± 1.67 mmol/L
HDL ([5]; 20 mg/kg orally for 30 days): 0.80 ± 0.10 mmol/L
INS ([5]; 20 mg/kg orally for 30 days): 20.45 ± 6.36 μ IU/ml
LDL ([5]; 20 mg/kg orally for 30 days): 1.31 ± 0.10 mmol/L
TC ([5]; 20 mg/kg orally for 30 days): 2.47 ± 0.08 mmol/L
TG ([5]; 20 mg/kg orally for 30 days): 1.60 ± 0.41 mmol/L
improvement of GLU, TC, TG, HDL and LDL and INS in diabetic GK rats ([5]; 20 mg/kg orally for 30 days): significantly improves
GLU ([5]; 40 mg/kg orally for 30 days): 23.17 ± 1.58 mmol/L
HDL ([5]; 40 mg/kg orally for 30 days): 0.80 ± 0.09 mmol/L
INS ([5]; 40 mg/kg orally for 30 days): 16.79 ± 5.37 μ IU/ml
LDL ([5]; 40 mg/kg orally for 30 days): 1.37 ± 0.11 mmol/L
TC ([5]; 40 mg/kg orally for 30 days): 2.49 ± 0.07 mmol/L
TG ([5]; 40 mg/kg orally for 30 days): 1.57 ± 0.39 mmol/L

AUC(0-inf) ([2]; rat, in vivo, po, 100 mg/kg): 31100 ng·h/mL
Cmax ([2]; rat, in vivo, po, 100 mg/kg): 14800 ± 500 ng/mL
T1/2β ([2]; rat, in vivo, po, 100 mg/kg): 45.7 ± 8.3 min
dissolves in 30 minutes ([3]; 5 mg powder in 50 ml distilled water): can't be dissolved
solubility at 30 min ([3]; water, thermodynamic from solid): < 100 µg/mL
SMILES: O=c1c2cc(O)c(O)cc2oc2cc(O)c(C3OC(CO)C(O)C(O)C3O)c(O)c12 (stereo not drawn) [Mangiferin]
improvement of GLU, TG, FFA, INS, Glucose infusion rate in diabetic rats ([4]; 20 mg/kg orally for 8 weeks): does not significantly improve
Glucose infusion rate ([4]; 20 mg/kg orally for 8 weeks): 15.75 ± 3.69 mg/kg · min
Glucose infusion rate ([4]; 40 mg/kg orally for 8 weeks): 18.32 ± 3.89 mg/kg · min
Glucose infusion rate ([4]; 80 mg/kg orally for 8 weeks): 23.65 ± 3.67 mg/kg · min
FFA ([4]; 20 mg/kg orally for 8 weeks): 1.79 ± 0.24 µmol/L
GLU ([4]; 20 mg/kg orally for 8 weeks): 10.56 ± 0.38 mmol/L
INS ([4]; 20 mg/kg orally for 8 weeks): 33.42 ± 3.79 μ IU/ml
TG ([4]; 20 mg/kg orally for 8 weeks): 3.42 ± 0.41 mmol/L
FFA ([4]; 40 mg/kg orally for 8 weeks): 1.56 ± 0.19 µmol/L
GLU ([4]; 40 mg/kg orally for 8 weeks): 8.45 ± 0.23 mmol/L
INS ([4]; 40 mg/kg orally for 8 weeks): 28.13 ± 3.74 μ IU/ml
TG ([4]; 40 mg/kg orally for 8 weeks): 2.82 ± 0.22 mmol/L
FFA ([4]; 80 mg/kg orally for 8 weeks): 1.29 ± 0.34 µmol/L
GLU ([4]; 80 mg/kg orally for 8 weeks): 7.05 ± 0.44 mmol/L
INS ([4]; 80 mg/kg orally for 8 weeks): 24.35 ± 3.46 μ IU/ml
TG ([4]; 80 mg/kg orally for 8 weeks): 1.82 ± 0.32 mmol/L
GLU ([5]; 20 mg/kg orally for 30 days): 19.65 ± 5.07 mmol/L
HDL ([5]; 20 mg/kg orally for 30 days): 0.68 ± 0.12 mmol/L
INS ([5]; 20 mg/kg orally for 30 days): 26.94 ± 4.89 μ IU/ml
LDL ([5]; 20 mg/kg orally for 30 days): 1.56 ± 0.26 mmol/L
TC ([5]; 20 mg/kg orally for 30 days): 2.54 ± 0.28 mmol/L
TG ([5]; 20 mg/kg orally for 30 days): 1.69 ± 0.31 mmol/L
improvement of GLU, TC, TG, HDL and LDL and INS in diabetic GK rats ([5]; 20 mg/kg orally for 30 days): does not significantly improve
GLU ([5]; 40 mg/kg orally for 30 days): 20.33 ± 4.09 mmol/L
HDL ([5]; 40 mg/kg orally for 30 days): 0.75 ± 0.13 mmol/L
INS ([5]; 40 mg/kg orally for 30 days): 24.44 ± 1.91 μ IU/ml
LDL ([5]; 40 mg/kg orally for 30 days): 1.33 ± 0.41 mmol/L
TC ([5]; 40 mg/kg orally for 30 days): 2.50 ± 0.45 mmol/L
TG ([5]; 40 mg/kg orally for 30 days): 1.61 ± 0.22 mmol/L
improvement of TG, HDL and LDL in diabetic GK rats ([5]; 40 mg/kg orally for 30 days): improves
GLU ([5]; 80 mg/kg orally for 30 days): 20.57 ± 4.13 mmol/L
HDL ([5]; 80 mg/kg orally for 30 days): 0.78 ± 0.11 mmol/L
INS ([5]; 80 mg/kg orally for 30 days): 16.68 ± 1.76 μ IU/ml
LDL ([5]; 80 mg/kg orally for 30 days): 1.30 ± 0.38 mmol/L
TC ([5]; 80 mg/kg orally for 30 days): 2.45 ± 0.31 mmol/L
TG ([5]; 80 mg/kg orally for 30 days): 1.59 ± 0.16 mmol/L
